Laboratory results reported in patent US20260272950A1, “METHOD OF TREATMENT OF A NEURONAL PATHOLOGY RELATED TO HYPOXIA, HYPOGLYCEMIA AND/OR HYPERGLYCEMIA” (priority 2019, published 2026).

How the values were obtained:
[1] = test system: primary culture of cortical neurons; experiment: MTT neuronal survival evaluation test in in vitro model of ischemia/reperfusion (OGD); format: cell-based, mouse; conditions: for neuronal protection (MTT): Example 6, FIG. 6, 100 nM, 4 h of OGD then 24 h of reperfusion
Protocol: (§1) More specifically, the cells taken are grown in a Neurobasal™ medium (ref. 21103049 ThermoFisher Scientific) to which L-glutamine and B27 supplement 50X (ref. 17504044 ThermoFisher Scientific) have been added (step 2). The neurons from the primary culture are then isolated and purified. It should be noted that it is the culture conditions in themselves which make it possible to obtain a purified culture of neurons from the dissociation of the embryonic cortexes. Oxygen and glucose deprivation (OGD) is then carried out (step 3) on these neurons in order to mimic as closely as possible what happens in vivo during a stroke, that is to say a decrease in oxygen and glucose supply due to a decrease in blood perfusion for the cells. In order to carry out this oxygen and glucose deprivation mimicking ischemia, the neurons are placed, for 4 h, in an incubator of which the atmosphere has an oxygen content of approximately 1% and with the culture medium being replaced with a glucose-free medium (step 3). Since the ischemia model is an “ischemia/reperfusion” model, the neurons are then placed in a medium containing glucose under normoxic conditions for 24 h (reperfusion) (step 4) following the ischemia step. Neuron group A is a group of neurons having been treated with a solution of compound of formula (I) during the OGD and the reperfusion, that is to say that a molecule of table 1 is added to glucose-free medium as soon as the oxygen and glucose deprivation begins (step 3). […] The concentration of the other molecules of table 1 is 100 nmol·L^−1 in the glucose-free medium. Neuron group B is a group of neurons having been treated with a solution of DX243 during the reperfusion only (step 4), in order to be closer to what occurs clinically, namely the possible treatment only after several hours with a conventional treatment. The DX243 solution is added to the glucose-free medium as soon as the reperfusion begins (step 4). The DX243 concentration is between 1 nmol. L^−1 and 1 μmol·L^−1 in the glucose-free medium.
(§2) The negative control consists of a group of neurons undergoing OGD (step 3) followed by reperfusion (step 4) without DX243 being present. This group of neurons is called “Ctrl” in FIGS. 2 to 4. The normal control consists of a group of neurons from the primary culture placed under normoxic conditions for 28 h. The normal control is called “normox” in FIGS. 2 to 4. The positive control consists of a group of neurons from the primary culture having undergone OGD for 4 h (step 3) in the presence of roscovitine, which is a cell cycle inhibitor, leading to neuronal protection, followed by reperfusion for 24 h (step 4). The positive control is called “ROSCO” in FIGS. 2 to 4.
(§3) At the end of the reperfusion (step 4), 24 h after the OGD, the survival of the neurons is evaluated by means of three different tests: an immunocytochemical test 5, an MTT (3-(4,5-dimethylthiazol-2-yl)-2,5-diphenyltetrazolium bromide) test 6 and a test based on the cell membrane integrity via the use of trypan blue 7. The results are then compared to the results of the three control-group survival tests.
In order to confirm the results obtained with DX243, a test based on the metabolic activity of the neurons was carried out to evaluate neuronal survival in another way. This test is based on the use of the tetrazolium salt MTT (3-(4,5-dimethylthiazol-2-yl)-2,5-diphenyltetrazolium bromide). The tetrazolium is reduced, by the mitochondrial succinate dehydrogenase of the active live cells, into formazan, a purple-colored precipitate. The amount of precipitate formed is proportional to the amount of live cells but also to the metabolic activity of each cell. Thus, a simple assay of the optical density at 550 nm by spectroscopy makes it possible to determine the relative amount of live and metabolically active cells. […]

[2] = test system: primary culture of cortical neurons; experiment: Neuronal survival evaluation via trypan blue (cell membrane integrity) in in vitro model of ischemia/reperfusion (OGD); format: cell-based, mouse; conditions: for overall conclusion: neuroprotective effect against cerebral ischemia: conclusion drawn from all of the results (Examples 2 to 8); for neuronal protection (trypan blue): Example 7, FIG. 7, 4 h of OGD then 24 h of reperfusion
Protocol: as §1, §2, §3
A third cell survival test in the case of the use of DX243, based on cell membrane integrity, which is ruptured in dead cells, was carried out. The latter test uses trypan blue which will stain the dead cells blue. The calculation of the percentage of live cells was consequently performed by counting the proportion of blue and non-blue cells, and related to the percentage of live cells observed in the normox group. The results obtained were reported in graph A of FIG. 4 for group A and in graph B of FIG. 4 for group B.
For all the molecules of table I other than DX243 used on group A, the third cell survival test was carried out. The results obtained were reported on the graph of FIG. 5, with the results obtained with DX243 being included therein. The sign NT means not treated. […]

[3] = test system: primary culture of cortical neurons; experiment: Immunocytochemical test for neuronal survival (DAPI, CC3, TUJ1) in in vitro model of ischemia/reperfusion (OGD); format: cell-based, mouse
Protocol: as §1
The negative control consists of a group of neurons undergoing OGD (step 3) followed by reperfusion (step 4) without DX243 being present. This group of neurons is called “Ctrl” in FIGS. 2 to 4. […]
as §3, with “The results are then compared to the results of the three control-group survival tests.” left out
A first series of images is taken with chemical labelling by fluorescence. […] A second series of images is taken with labelling by fluorescence using the CC3 antibody. […]

[4] = test system: male murine model of stroke, called Middle Cerebral Artery Occlusion (MCAO); experiment: In vivo stroke test, Middle Cerebral Artery Occlusion (MCAO) followed by reperfusion; set-up: species or system mouse; conditions: DX243 50 mg/Kg at reperfusion after 1 h occlusion
[5] = Example 5, FIG. 5, group A, 100 nmol·L^−1 during 4 h OGD and 24 h reperfusion
[6] = concentration not printed in the sentence (100 nmol·L^−1 per Example 1)
[7] = 4 h OGD + 24 h reperfusion, DX243 treatment compared with the Ctrl group
[8] = observed at 24 h, vs non-treated (Ctrl) mice

CC(C)CCCC(C)[C@H]1CCC2C3C[C@@H](NCCCCN)[C@@]4(O)C[C@@H](O)CC[C@]4(C)C3CC[C@@]21C (some centres unmarked) [DX401]
neuronal protection (MTT) [1]: neuroprotective effect
overall conclusion: neuroprotective effect against cerebral ischemia [2]: neuroprotective effect against cerebral ischemia

CC(C)CCCC(C)[C@H]1CCC2C3=C[C@@H](NCCCNCCCCN)[C@@]4(O)C[C@@H](O)CC[C@]4(C)C3CC[C@@]21C (some centres unmarked) [DX242]
neuronal protection (MTT) [1]: neuroprotective effect
survival rate compared with DX243 [2, 5]: greater than that of DX243
neuronal protection (trypan blue) [2, 6]: neuroprotective effect
overall conclusion: neuroprotective effect against cerebral ischemia [2]: neuroprotective effect against cerebral ischemia

CC(C)CCCC(C)[C@H]1CCC2C3C[C@@H](NCCc4cnc[nH]4)[C@@]4(O)C[C@@H](O)CC[C@]4(C)C3CC[C@@]21C (some centres unmarked) [DX101]
neuronal protection (MTT) [1]: neuroprotective effect
overall conclusion: neuroprotective effect against cerebral ischemia [2]: neuroprotective effect against cerebral ischemia

CC(C)CCCC(C)[C@H]1CCC2C3C[C@@H](NCCCN(CCCCNC(=O)OC(C)(C)C)C(=O)OC(C)(C)C)[C@@]4(O)C[C@@H](O)CC[C@]4(C)C3CC[C@@]21C (some centres unmarked) [DX243BOC]
survival rate compared with DX243 [2, 5]: lower than that of the group treated with DX243
survival rate compared with NT neurons having undergone OGD and reperfusion [2, 5]: lower than that of the group treated with DX243 and than that of the NT group having undergone OGD and reperfusion

CC(C)CCCC(C)[C@H]1CCC2C3C[C@@H](NCCCNCCCCN)[C@@]4(O)C[C@@H](O)CC[C@]4(C)C3CC[C@@]21C (some centres unmarked) [DX243]
protection against neuronal death ([3]; 4 h OGD + 24 h reperfusion, DX243 during OGD and reperfusion, or only during reperfusion, vs Ctrl group): partially protect against neuronal death
proportion of cells undergoing apoptosis (CC3 antibody, activated caspase 3) [3, 7]: decrease in the proportion of cells undergoing apoptosis
proportion of live cells [3, 7]: increase in the proportion of live cells
neuron protection, post-OGD treatment for 24 h (reperfusion only) compared with treatment during OGD and reperfusion ([3]; group B, DX243 only during 24 h reperfusion): protects the neurons even more efficiently
protection against decrease of metabolically active cells (survival) following OGD ([1]; 4 h OGD + 24 h reperfusion, groups A and B, vs Ctrl group): partially protects against this decrease in survival
neuronal protection (MTT) [1]: significant neuronal protection
effect in group treated only during reperfusion compared with group A ([1]; group B, DX243 only during the reperfusion for 24 h): all the more marked
percentage of live cells (membrane integrity) related to normox group ([2]; 4 h OGD + 24 h reperfusion, groups A and B, mainly 1 to 100 nmol·L^−1): restores the percentage of live cells to levels close to that observed in the normox group
neuronal protection (trypan blue) ([2]; 1000 nM): neuroprotective effect
neuronal protection (trypan blue) ([2]; concentrations ranging from 1 to 100 nM): significant neuronal protection
overall conclusion: neuroprotective effect against cerebral ischemia [2]: neuroprotective effect against cerebral ischemia
behavioral deficits (neuroscore) ([4]; observed at 24 h, living mice, vs non-treated (Ctrl) mice): decrease in the behavioral deficits
percentage of dead mice [4, 8]: decrease in the percentage of dead mice
size of the lesion (infarcted region, TTC staining) [4, 8]: decrease in the size of the lesion
correlation between the decrease in blood flow (Laser Doppler Flowmetry) and the consequences of the stroke ([4]; treated mice): there does not appear to be any correlation

CC(C)CCCC(C)[C@H]1CCC2C3=C[C@@H](NCCCNCCCCNCCCN)[C@@]4(O)C[C@@H](O)CC[C@]4(C)C3CC[C@@]21C (some centres unmarked) [DX302]
neuronal protection (MTT) [1]: neuroprotective effect
overall conclusion: neuroprotective effect against cerebral ischemia [2]: neuroprotective effect against cerebral ischemia

CC(C)CCCC(C)[C@H]1CCC2C3C[C@@H](NCCCCNCCCN)[C@@]4(O)C[C@@H](O)CC[C@]4(C)C3CC[C@@]21C (some centres unmarked) [DX245]
neuronal protection (MTT) [1]: significant neuronal protection
survival rate compared with DX243 [2, 5]: greater than that of DX243
neuronal protection (trypan blue) ([2]; 10 nM): neuroprotective effect
neuronal protection (trypan blue) ([2]; 100 nM): significant neuronal protection
neuronal protection (trypan blue) ([2]; 1000 nM): neuroprotective effect
overall conclusion: neuroprotective effect against cerebral ischemia [2]: neuroprotective effect against cerebral ischemia

CC(C)CCCC(C)[C@H]1CCC2C3C[C@@H](NCCCNCCCCNCCCN)[C@@]4(O)C[C@@H](O)CC[C@]4(C)C3CC[C@@]21C (some centres unmarked) [DX301]
neuronal protection (MTT) [1]: neuroprotective effect
overall conclusion: neuroprotective effect against cerebral ischemia [2]: neuroprotective effect against cerebral ischemia

CC(=O)NCCCNCCCCN[C@@H]1CC2C3CC[C@H](C(C)CCCC(C)C)[C@@]3(C)CCC2[C@@]2(C)CC[C@H](O)C[C@]12O (some centres unmarked) [DX249]
neuronal protection (MTT) [1]: neuroprotective effect
overall conclusion: neuroprotective effect against cerebral ischemia [2]: neuroprotective effect against cerebral ischemia

CC(C)CCCC(C)[C@H]1CCC2C3=C[C@@H](NCCCCNCCCN)[C@@]4(O)C[C@@H](O)CC[C@]4(C)C3CC[C@@]21C (some centres unmarked) [DX244]
neuronal protection (MTT) [1]: neuroprotective effect
survival rate compared with DX243 [2, 5]: greater than that of DX243
neuronal protection (trypan blue) [2, 6]: neuroprotective effect
overall conclusion: neuroprotective effect against cerebral ischemia [2]: neuroprotective effect against cerebral ischemia
